One data set deals with mouse Elevated Zero Maze. Description: Anxiolytic activity: mouse Elevated Zero Maze model. The following applies: 30 min prior to testing, mice; for % Total Distance Traveled (Relative to Control): 3 mg/kg ip. It counts as in vivo. As to the method: Anxiolytic activity of the compounds of formula I was determined using the mouse Elevated Zero Maze model, originally described by Shepherd, et al. (Psychopharmocol. (1994) 116:56–64), incorporated herein by reference in its entirety. Anxiolytic efficacy was measured as the ability of the test compound to increase the amount of time that the mice spent in the open zones of the maze. To account for the possibility of false positive results due to increased locomotor activity, total distance traveled during the course of the experiment was also monitored.
The zero maze, constructed of black Perspex, consisted of a circle (outer diameter approximately 60 cm, width 5 cm) that was elevated 55 cm above the floor. The zero maze was divided into 4 equal quadrants, alternating between open and closed. […] Animals were tested under low levels of illumination in the presence of red light. Test animals (male CN57BI/n mice) were group housed with ad lib access to food and water. On the day of testing, animals were brought into the behavioral testing room and allowed to habituate for a period of not less than one-half hour. Test compounds were administered at the appropriate dose ip. 30 min prior to testing on the zero maze. Control animals were administered the test vehicle. Animals were placed on the zero maze with their head and forepaws contained within a closed quadrant. The animals' behavior was then recorded for 4 minutes and the distance traveled, the amount of time spent in, and number of entries into, each quadrant was noted. Behavior was monitored utilizing an automated video tracking system. Results for the test compounds are presented here as the percentage relative to that obtained with the control animals.

The target in data set [1] is T1, human Kv1.1/Kvβ1 potassium ion channel complex (Homo sapiens, UniProt Q09470).
T1 construct: expressed in transfected cells; host or cells: Xenopus oocytes injected with cRNA
Description: Xenopus oocytes current assay (inhibition of inactivation, voltage clamp). It is filed as cell-based. The following applies: Xenopus oocytes expressing hKv1.1/hKvβ1, relative to control bath solution, read-out: Percent Increase in Steady State Current Of human Kv1.1/Kvβ1 @ a concentration of 50 μM. As to the method:
The compounds of formula I were examined for their ability to inhibit the inactivation of the human Kv1.1/Kvβ1 potassium ion channel complex in vitro using electrophysiological current recordings on inactivating Kv1.1/Kvβ1 channels expressed in Xenopus oocytes. Xenopus oocytes were harvested from frogs under general anesthesia using aseptic techniques. Oocytes were treated with 2 mg/ml collagenase for 1–1.5 hr, defolliculated, and injected with 40 nL cRNA (a mixture of hky1.1 and hKvβ1) produced using standard molecular biological techniques (Sambrook, et al., 1989, Molecular Cloning: A Laboratory Manual). The concentration of hKv1.1/hKvp1 cRNA varies, but was generally about 50 ng/μL hKv1.1 and […] hKβ1.
Currents were recorded using standard voltage clamp amplifiers at room temperature. Recordings were performed in the bath solution “ND-96” containing 96 mM NaCl, 2 mM KCl, 1 mm CaCl2, 1 mM MgCl2, 10 mM HEPES and […] Gentamycin (pH=7.6). The pipette (electrode) solution generally consisted of […]. Electrodes were made from WPI TW150F-4 borosilicate glass (or equivalent) and typically had resistances of 0.5–1.5 Mohms. The standard current-voltage (IV) pulse protocol consisted of voltage steps from −60 mV to +50 mV, in 10 mV increments for 200 ms, at a frequency of one IV set per 2 minutes. Data were digitized and analyzed by standard software packages.
Solutions of the test compounds consisting of test compounds dissolved in bath solution were applied by bath perfusion using gravity or pump-driven flow. A minimum of 2 mL (10 times the bath volume) over 3 minutes were flowed for each compound concentration tested. Data were averaged across at least 3 cells tested for each concentration.
Test compounds were examined for their ability to inhibit the inactivation of the steady state portion of the IV curve.

T1 sequence (Q09470 whole entry, one chain of several): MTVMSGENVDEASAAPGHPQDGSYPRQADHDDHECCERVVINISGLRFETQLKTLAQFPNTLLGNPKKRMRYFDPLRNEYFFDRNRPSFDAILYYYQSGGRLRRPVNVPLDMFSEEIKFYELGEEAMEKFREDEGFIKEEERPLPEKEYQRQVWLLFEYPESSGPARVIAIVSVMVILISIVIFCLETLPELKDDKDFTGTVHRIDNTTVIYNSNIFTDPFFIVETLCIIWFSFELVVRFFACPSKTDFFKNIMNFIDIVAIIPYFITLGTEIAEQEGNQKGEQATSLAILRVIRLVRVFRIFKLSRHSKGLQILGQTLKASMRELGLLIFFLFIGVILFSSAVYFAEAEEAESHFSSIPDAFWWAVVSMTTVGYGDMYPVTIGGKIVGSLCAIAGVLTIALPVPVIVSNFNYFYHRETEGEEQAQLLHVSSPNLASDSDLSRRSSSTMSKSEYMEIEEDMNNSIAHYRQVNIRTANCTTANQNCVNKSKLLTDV

Take `CN1C(=O)CN=C(c2ccccc2)c2cc(Cl)ccc21` [Diazepam, reference compound]: the “% Total Distance Traveled (Relative to Control)” value is listed as 75% with mouse Elevated Zero Maze and “small decrease” in the data set on mouse Elevated Zero Maze (listed as diazepam).

As a reminder, the melting point is the temperature of the solid-liquid transition. `CC1(C)C2CC[C@]1(C)C(=O)C(C(=O)Nc1cc(C(F)(F)F)cc(C(F)(F)F)c1)C2=O` (stereo partly drawn) [Example 1, (1S)-N-[3,5-bis(trifluoromethyl)phenyl]-1,8,8-trimethyl-2,4-dioxobicyclo[3.2.1] octane-3-carboxamide] yielded a melting point of 68 to 72 °C. Besides, in data set [1], the activation at 50 µM worked out at 16%.

Regarding `CC1(C)C2CC[C@]1(C)C(=O)C(C(=O)Nc1cccc(C(F)(F)F)c1)C2=O` (stereo partly drawn) [Example 2, (1S)-N-[3-(trifluoromethyl)phenyl]-1,8,8-trimethyl-2,4-dioxobicyclo[3.2.1] octane-3-carboxamide], the melting point is 60 to 62 °C. Further, in the data set on mouse Elevated Zero Maze (60 mg/kg ip.), the “% Time Spent in Open Zones (Relative to Control)” value is recorded as 140%. The activation at 50 µM in data set [1] came to 22%.

The compound `CC1(C)C2CC[C@]1(C)C(=O)C(C(=O)Nc1ccc(Cl)c(Cl)c1)C2=O` (stereo partly drawn) [Example 4, (1S)-N-(3,4-dichlorophenyl)-1,8,8-trimethyl-2,4-dioxobicyclo[3.2.1]octane-3-carboxamide] came in with a melting point of 88 to 90 °C. Further, the activation at 50 µM in data set [1] stood at 11%.

With `CC1(C)C2CC[C@]1(C)C(=O)C(C(=O)Nc1ccc(C(F)(F)F)cc1)C2=O` (stereo partly drawn) [Example 8, (1S)-N-[4-(trifluoromethyl)phenyl]-1,8,8-trimethyl-2,4-dioxobicyclo[3.2.1] octane-3-carboxamide], the melting point is 81 to 83 °C. The activation at 50 µM in data set [1] was found to be 53%.

`CN(C)c1ccc(NC(=O)C2C(=O)C3CC[C@](C)(C2=O)C3(C)C)cc1` (stereo partly drawn) [Example 9, (1S)-N-[4-(dimethylamino)phenyl]-1,8,8-trimethyl-2,4-dioxobicyclo[3.2.1] octane-3-carboxamide] had a melting point of 93 to 95 °C. Besides, in data set [1], the activation at 50 µM is 27%.

Regarding `CC1(C)C2CC[C@]1(C)C(=O)C(C(=O)Nc1ccc(F)c(Cl)c1)C2=O` (stereo partly drawn) [Example 10, (1S)-N-[3-chloro-4-fluorophenyl]-1,8,8-trimethyl-2,4-dioxobicyclo[3.2.1] octane-3-carboxamide], the melting point lay within 87 to 89 °C. In addition, the activation at 50 µM in data set [1] came out at 137%.

The compound `CC1(C)C2CC[C@@]1(C)C(=O)C(C(=O)Nc1cc(C(F)(F)F)cc(C(F)(F)F)c1)C2=O` (stereo partly drawn) [Example 12, (1R)-N-[3,5-bis(trifluoromethyl)phenyl]-1,8,8-trimethyl-2,4-dioxobicyclo [3.2.1]octane-3-carboxamide] yielded a melting point of 68 to 71 °C. The activation at 50 µM in data set [1] came to 22%.

Compound `CC1(C)C2CC[C@@]1(C)C(=O)C(C(=O)Nc1cc(Cl)cc(Cl)c1)C2=O` (stereo partly drawn) [Example 13, (1R)-N-(3,5-dichlorophenyl)-1,8,8-trimethyl-2,4-dioxobicyclo[3.2.1]octane-3-carboxamide] showed a melting point of 115 to 117 °C. In addition, the activation at 50 µM in data set [1] was 19%.

Take `CC1(C)C2CC[C@@]1(C)C(=O)C(C(=O)Nc1ccc([N+](=O)[O-])cc1)C2=O` (stereo partly drawn) [Example 15, (1R)-N-(4-nitrophenyl)-1,8,8-trimethyl-2,4-dioxobicyclo[3.2.1]octane-3-carboxamide]: the melting point lay within 168 to 170 °C. Besides, the activation at 50 µM in data set [1] came to 75%.

The compound `CC1(C)C2CC[C@@]1(C)C(=O)C(C(=O)Nc1ccc(Cl)c(C(F)(F)F)c1)C2=O` (stereo partly drawn) [Example 16, (1R)-N-[4-chloro-3-(trifluoromethyl)phenyl]-1,8,8-trimethyl-2,4-dioxobicyclo [3.2.1]octane-3-carboxamide] returned a melting point of 117 to 119 °C. In data set [1], the activation at 50 µM was 45%.

For the compound `CC1(C)C2CC[C@@]1(C)C(=O)C(C(=O)Nc1ccc(C(F)(F)F)cc1)C2=O` (stereo partly drawn) [Example 18, (1R)-N-[4-(trifluoromethyl)phenyl]-1,8,8-trimethyl-2,4-dioxobicyclo[3.2.1] octane-3-carboxamide], the melting point was in the range of 78 to 81 °C. The activation at 50 µM in data set [1] stood at 96%.

In the case of `CC1(C)C2CC[C@@]1(C)C(=O)C(C(=O)Nc1ccc(Cl)cc1)C2=O` (stereo partly drawn) [Example 19, (1R)-N-[4-chlorophenyl]-1,8,8-trimethyl-2,4-dioxobicyclo[3.2.1]octane-3-carboxamide], the melting point fell in the range of 88 to 90 °C. Also, in data set [1], the activation at 50 µM turned out to be 14%.

Compound `CC1(C)C2CC[C@@]1(C)C(=O)C(C(=O)Nc1ccc(F)c(Cl)c1)C2=O` (stereo partly drawn) [Example 20, (1R)-N-[3-chloro-4-fluorophenyl]-1,8,8-trimethyl-2,4-dioxobicyclo[3.2.1] octane-3-carboxamide] had a melting point of 89 to 91 °C. Besides, in data set [1], the activation at 50 µM was determined as 267%.

Regarding `CC1(C)C2CC[C@@]1(C)C(=O)C(C(=O)Nc1ccc(F)c(C(F)(F)F)c1)C2=O` (stereo partly drawn) [Example 21, (1R)-N-[3(trifluoromethyl)-4-fluorophenyl]-1,8,8-trimethyl-2,4-dioxobicyclo [3.2.1]octane-3-carboxamide], the melting point fell in the range of 96 to 98 °C. The activation at 50 µM in data set [1] is 229%.

As for `O=C(Nc1cccc(C(F)(F)F)c1)C1C(=O)C2CCC(C2)C1=O` (centres unmarked) [Example 22, N-[3-(trifluoromethyl)phenyl]-2,4-dioxobicyclo[3.2.1]octane-3-carboxamide], the melting point was 68 to 69 °C. Moreover, the activation at 50 µM in data set [1] turned out to be 41%.

On to `O=C(Nc1cc(C(F)(F)F)cc(C(F)(F)F)c1)C1C(=O)C2CCC(C2)C1=O` (centres unmarked) [Example 23, N-[3,5-bis(trifluoromethyl)phenyl]-2,4-dioxobicyclo[3.2.1]octane-3-carboxamide], for which the melting point was 88 to 90 °C. In data set [1], the activation at 50 µM was 137%.

For `O=C(Nc1ccc(Cl)c(C(F)(F)F)c1)C1C(=O)C2CCC(C2)C1=O` (centres unmarked) [Example 25, N-[4-chloro-3-(trifluoromethyl)phenyl]-2,4-dioxobicyclo[3.2.1]octane-3-carboxamide], the melting point lay in the range of 136 to 137 °C. The activation at 50 µM in data set [1] was 47%.

Consider `O=C(Nc1ccc(F)c(C(F)(F)F)c1)C1C(=O)C2CCC(C2)C1=O` (centres unmarked) [Example 27, N-[4-fluoro-3-(trifluoromethyl)phenyl]-2,4-dioxobicyclo[3.2.1]octane-3-carboxamide], for which the melting point fell in the range of 97 to 100 °C. Moreover, the activation at 50 µM in data set [1] turned out to be 43%.

Consider `CC1(C)C2CC1C(=O)C(C(=O)Nc1ccc(Cl)cc1)C2=O` (centres unmarked) [Example 36, 6,6-Dimethyl-2,4-dioxo-N-(4-chlorophenyl)bicyclo[3.1.1]heptane-3-carboxamide], for which the activation at 50 µM in data set [1] amounted to 125%.

Regarding `O=C(Nc1cc(C(F)(F)F)cc(C(F)(F)F)c1)C1C(=O)C2CCC(CC2)C1=O` (centres unmarked) [Example 37, N-[3,5-bis(trifluoromethyl)phenyl]-2,4-dioxobicyclo[3.2.2]nonane-3-carboxamide], in data set [1], the activation at 50 µM turned out to be 68%.

(Values after patent US7179943B2, “Bicyclic derivatives that modulate voltage-gated potassium channels and methods of use thereof” (Wyeth, priority 2004, dated 2007).)
